Test system: Chinese hamster ovary cells without the D4 receptor
Experiment: [35S]GTPγS binding to G proteins in CHO cells without the D4 receptor
Type: cell-based
Conditions: CHO cells without the D4 receptor (FIG. 5B)
Excerpt: FIGS. 5A and 5B illustrate graphic representations of the effect of cycloleucine on spontaneous G protein binding of [^35 S]GTPγS.

## NC1(C(=O)O)CCCC1 [cycloleucine]
  spontaneous [35S]GTPγS binding: inability

— patent US5738998A, “Compositions and methods for diagnosing schizophrenia” (priority 1995, dated 1998)
